According to patent publication US20240132464A1, “HETEROCYCLIC COMPOUNDS AS E3 LIGASE INHIBITORS” (Accutar Biotechnology Inc., priority 2022, published 2024):

Target: T1, GID4 (Uniprot ID: Q81VV7, residues 124-289) (Homo sapiens, UniProt Q8IVV7)
T1 construct: GID4 (Uniprot ID: Q81VV7, residues 124-289)
T1 sequence (Q8IVV7 124-289): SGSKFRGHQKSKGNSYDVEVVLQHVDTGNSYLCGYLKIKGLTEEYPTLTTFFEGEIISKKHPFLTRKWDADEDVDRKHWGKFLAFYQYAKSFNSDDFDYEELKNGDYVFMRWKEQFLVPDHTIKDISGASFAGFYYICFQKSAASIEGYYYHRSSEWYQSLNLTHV
Assay: GID4 competitive binding assay (AlphaScreen, GID4/degron peptide PGLW)
Conditions: 24 nM GID4, 48 nM biotinylated degron peptide PGLW, 4° C., read-out: IC50 (Inhibition of GID4/Degron binding by test compounds)
Outline: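 His-tagged human GID4 (residues 124-289, 24 nM) pre-incubated 2 h at 4 °C with 48 nM biotinylated PGLW peptide and compound in HEPES pH 7.5 buffer, 2% DMSO (final). AlphaScreen streptavidin donor/Ni-NTA acceptor beads added for 1 h; IC50 from nonlinear fit of % inhibition versus DMSO.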

IC50 [nM] | Compound
< 500 | CC(C)c1nc(N2CCCC(c3cnc4ccccn34)C2)c2cc[nH]c2n1 (stereo not shown) [Compound 374, 4-(3-(imidazo[1,2-a]pyridin-3-yl)piperidin-1-yl)-2-isopropyl-7H-pyrrolo[2,3-d]pyrimidine]
< 500 | CN(C)CCNC(=O)c1ccc(Br)c(C2CN(c3cc(N)nc(N)n3)CCN2)c1 (stereo not shown) [Compound 9, 4-bromo-3-(4-(2,6-diaminopyrimidin-4-yl)piperazin-2-yl)-N-(2-(dimethylamino)ethyl)benzamide]
< 500 | CN(C)[C@H]1C[C@H](NC(=O)c2ccc(-c3cc(O)c4ncccc4c3)cc2)C1 [Compound 280, N-(trans-3-(dimethylamino)cyclobutyl)-4-(8-hydroxyquinolin-6-yl)benzamide]
< 500 | CNc1cc(N2CCN[C@H](c3ccccc3Br)C2)nc(NC)n1 (stereo in doubt) [Compound 131, (R/S)-6-(3-(2-bromophenyl)piperazin-1-yl)-N2,N4-dimethylpyrimidine-2,4-diamine]
< 500 | Cc1c(-c2ccc(Br)c([C@H]3CN(c4cc(N)nc(N)n4)CCN3)c2)cnn1C (racemic) [Compound 5, (S/R)-6-(3-(2-bromo-5-(1,5-dimethyl-1H-pyrazol-4-yl)phenyl)piperazin-1-yl)pyrimidine-2,4-diamine]
500 to 5000 | CC(C)c1cc(-c2cc(-c3ccnn3C)c3cccc(-c4cc[nH]n4)c3n2)cc(N)n1 [Compound 367, 6-isopropyl-4-(4-(1-methyl-1H-pyrazol-5-yl)-8-(1H-pyrazol-3-yl)quinolin-2-yl)pyridin-2-amine]
> 5000 | CNc1cc(N2CCNC(c3ccccc3)C2)nc(N)n1 (single isomer, unassigned) [Compound 128, (R/S)-N4-methyl-6-(3-phenylpiperazin-1-yl)pyrimidine-2,4-diamine]
500 to 5000 | CC(C)c1cc(N2CCCNC(c3ccccc3Br)C2)nc(N)n1 (stereo not shown) [Compound 220, 4-(3-(2-bromophenyl)-1,4-diazepan-1-yl)-6-isopropylpyrimidin-2-amine]
> 5000 | Nc1nc(N2CCCC(c3ccn[nH]3)C2)c2ccccc2n1 (stereo not shown) [Compound 213, 4-(3-(1H-pyrazol-5-yl)piperidin-1-yl)quinazolin-2-amine]
500 to 5000 | CC(C)c1cc(N2CCCC(c3ncc4ccccn34)C2)nc(N)n1 (stereo not shown) [Compound 244, 4-(3-(imidazo[1,5-a]pyridin-3-yl)piperidin-1-yl)-6-isopropylpyrimidin-2-amine]
> 5000 | Nc1nccc2ccc(N3CCC(C(=O)N4CCCC4)C3)cc12 (stereo not shown) [Compound 354, (1-(1-aminoisoquinolin-7-yl)pyrrolidin-3-yl)(pyrrolidin-1-yl)methanone]
> 5000 | Nc1nc(N)c(F)c(N2CCOC(c3ccccc3Br)C2)n1 (single isomer, unassigned) [Compound 48, (S/R)-6-(2-(2-bromophenyl)morpholino)-5-fluoropyrimidine-2,4-diamine]
< 500 | CC(C)c1nc(N2CCNC(c3cnc4ccccn34)C2)c2cc[nH]c2n1 (stereo not shown) [Compound 375, 4-(3-(imidazo[1,2-a]pyridin-3-yl)piperazin-1-yl)-2-isopropyl-7H-pyrrolo[2,3-d]pyrimidine]
< 500 | Nc1nccc2ccc(-c3ccc4[nH]ncc4c3)cc12 [Compound 361, 7-(1H-indazol-5-yl)isoquinolin-1-amine]
< 500 | Nc1cc(N2CCNC(c3ccccc3C(F)(F)F)C2)nc(N)n1 (stereo not shown) [Compound 54, 6-(3-(2-(trifluoromethyl)phenyl)piperazin-1-yl)pyrimidine-2,4-diamine]
> 5000 | Nc1nc2c(c(N3CCCC(c4cnc5ccccn45)C3)n1)CCCN2 (stereo not shown) [Compound 88, 4-(3-(imidazo[1,2-a]pyridin-3-yl)piperidin-1-yl)-5,6,7,8-tetrahydropyrido[2,3-d]pyrimidin-2-amine]
500 to 5000 | CNc1nc(C(C)C)cc(N2CCNC(c3ccccc3Br)C2)n1 (single isomer, unassigned) [Compound 152, (R/S)-4-(3-(2-bromophenyl)piperazin-1-yl)-6-isopropyl-N-methylpyrimidin-2-amine]
500 to 5000 | CNc1cc(N2CCN(C)[C@H](c3ccccc3Br)C2)nc(NC)n1 (stereo in doubt) [Compound 80, (R/S)-6-(3-(2-bromophenyl)-4-methylpiperazin-1-yl)-N2,N4-dimethylpyrimidine-2,4-diamine]
> 5000 | CC(C)Nc1nc(C(C)C)cc(N2CCNC(c3ccccc3Br)C2)n1 (single isomer, unassigned) [Compound 150, (S/R)-4-(3-(2-bromophenyl)piperazin-1-yl)-N,6-diisopropylpyrimidin-2-amine]
> 5000 | CC(C)c1cc(N2CCn3cncc3C2)nc(N)n1 [Compound 182, 4-(5,6-dihydroimidazo[1,5-a]pyrazin-7(8H)-yl)-6-isopropylpyrimidin-2-amine]

IC50 [nM] | Compound
500 to 5000 | Nc1cc(N2CCOC(c3ccccc3Br)C2)nc(N)n1 (racemic) [Compound 145, (R/S)-6-(2-(2-bromophenyl)morpholino)pyrimidine-2,4-diamine]
500 to 5000 | Brc1ccccc1C1CN(c2ccnc3[nH]cnc23)CCN1 (single isomer, unassigned) [Compound 35, (R/S)-7-(3-(2-bromophenyl)piperazin-1-yl)-3H-imidazo[4,5-b]pyridine]
> 5000 | Nc1nc2c(c(N3CCNC(c4ccccc4Br)C3)n1)CSC2 (stereo not shown) [Compound 189, 4-(3-(2-bromophenyl)piperazin-1-yl)-5,7-dihydrothieno[3,4-d]pyrimidin-2-amine]
500 to 5000 | CC(C)c1nc(N)cc(N2CCN[C@@H](c3ccccc3Br)C2)n1 (racemic) [Compound 75, (S/R)-6-(3-(2-bromophenyl)piperazin-1-yl)-2-isopropylpyrimidin-4-amine]
500 to 5000 | CNc1cc(N2CCNC(c3cnc4ccccn34)C2)nc(N)n1 (stereo not shown) [Compound 92, 6-(3-(imidazo[1,2-a]pyridin-3-yl)piperazin-1-yl)-N4-methylpyrimidine-2,4-diamine]
< 500 | Nc1cc(N2CCNC(c3cc(N4CCC(CO)CC4)ccc3Br)C2)nc(N)n1 (stereo not shown) [Compound 33, (1-(4-bromo-3-(4-(2,6-diaminopyrimidin-4-yl)piperazin-2-yl)phenyl)piperidin-4-yl)methanol]
> 5000 | Nc1nc(NCC2CC2)cc(N2CCOC(c3ccccc3Br)C2)n1 (single isomer, unassigned) [Compound 77, R or S-6-(2-(2-bromophenyl)morpholino)-N^4-(cyclopropylmethyl)pyrimidine-2,4-diamine]
< 500 | CC(C)c1cc(N2CCNC(c3cc(C(F)(F)F)ccc3Br)C2)nc(N)n1 (single isomer, unassigned) [Compound 13, (R/S)-4-(3-(2-bromo-5-(trifluoromethyl)phenyl)piperazin-1-yl)-6-isopropylpyrimidin-2-amine]
500 to 5000 | Nc1cc(N2CCCC(c3n[nH]c4ccccc34)C2)nc(N)n1 (stereo not shown) [Compound 246, 6-(3-(1H-indazol-3-yl)piperidin-1-yl)pyrimidine-2,4-diamine]
< 500 | COc1cc(CNC(=O)c2n[nH]c3ccc(-c4ccc5ccnc(N)c5c4)cc23)ccn1 [Compound 326, 5-(1-aminoisoquinolin-7-yl)-N-((2-methoxypyridin-4-yl)methyl)-1H-indazole-3-carboxamide]
500 to 5000 | Nc1nccc2ccc(-c3ccc4[nH][nH]c(=O)c4c3)cc12 [Compound 1, 5-(1-aminoisoquinolin-7-yl)-1,2-dihydro-3H-indazol-3-one]
500 to 5000 | c1ccn2c(C3CCCN(c4ncnc5c4CCCN5)C3)cnc2c1 (stereo not shown) [Compound 58, 4-(3-(imidazo[1,2-a]pyridin-3-yl)piperidin-1-yl)-5,6,7,8-tetrahydropyrido[2,3-d]pyrimidine]
< 500 | CN1CCN(c2cc(N)nc(N)n2)CC1c1ccccc1Br (single isomer, unassigned) [Compound 143, (R/S)-6-(3-(2-bromophenyl)-4-methylpiperazin-1-yl)pyrimidine-2,4-diamine]
> 5000 | CC(C)c1cc(NCCc2c[nH]c3ccccc23)nc(N)n1 [Compound 203, N4-(2-(1H-indol-3-yl)ethyl)-6-isopropylpyrimidine-2,4-diamine]
> 5000 | CN(C)CCCNC(=O)c1cccc(-c2ccc3ccnc(N)c3c2)c1 [Compound 348, 3-(1-aminoisoquinolin-7-yl)-N-(3-(dimethylamino)propyl)benzamide]
< 500 | CC(C)c1nc(N)cc(N2CCO[C@@H](c3ccccc3Br)C2)n1 (racemic) [Compound 72, (S/R)-6-(2-(2-bromophenyl)morpholino)-2-isopropylpyrimidin-4-amine]
500 to 5000 | CN1CCN(C(=O)c2ccc(Br)c([C@H]3CN(c4cc(N)nc(N)n4)CCN3)c2)CC1 (racemic) [Compound 16, (S/R)-(4-bromo-3-(4-(2,6-diaminopyrimidin-4-yl)piperazin-2-yl)phenyl)(4-methylpiperazin-1-yl)methanone]
500 to 5000 | Nc1nc(NC2CC2)nc(N2CCOC(c3ccccc3Br)C2)n1 (stereo not shown) [Compound 61, 6-(2-(2-bromophenyl)morpholino)-N2-cyclopropyl-1,3,5-triazine-2,4-diamine]
500 to 5000 | CC(C)c1cc(N2CCNC(c3cc(N4CC(CO)C4)ccc3Br)C2)nc(N)n1 (single isomer, unassigned) [Compound 31, (S/R)-(1-(3-(4-(2-amino-6-isopropylpyrimidin-4-yl)piperazin-2-yl)-4-bromophenyl)azetidin-3-yl)methanol]
500 to 5000 | CN(C)CCCNC(=O)c1ccc(-c2cc(O)c3ncccc3c2)c(F)c1 [Compound 325, N-(3-(dimethylamino)propyl)-3-fluoro-4-(8-hydroxyquinolin-6-yl)benzamide]
